Source: patent US12433876B2, “Septin inhibitors for treatment of cancers” (UNIVERSITY OF ROCHESTER, priority 2019, dated 2025)

Key:
[1] = tested on: JIMT-1 breast cancer cells; experiment: RNA-Seq whole transcriptome analysis, JIMT-1; format: cell-based, human; conditions: 10 nM Afatinib
[2] = tested on: HE4; experiment: HE4 ELISA, secreted and intracellular levels; format: cell-based, human; conditions: ECC-1, 5 hours
Experimental: Cell lines, Culture, and Reagents. Cells were maintained in either DMEM (SKOV-3, KLE, OVCAR-3, OVCAR8-C5 and IGROV-1) or RPMI-1640 (ECC-1 and HCH-1), supplemented with 10% fetal calf serum (or 20% for OVCAR-3), penicillin (100 units/mL), and streptomycin (100 μg/mL) at 37° C. with 5% CO2 in a humidified incubator. Antibodies were purchased from Abcam (septin-2; ab179436) and Cell Signaling Technology; ERK (9102), p-ERK (4370), -actin (3700), u-Tubulin (2144), EGFR (4267) and HER2 (4290). FCF was purchased from Abcam. All other chemicals were from Sigma Aldrich. Synthesis of Derivaties. […] The reaction was monitored using thin-layer chromatography plates with DCM-MeOH or pure ethyl acetate as eluent. Spots were monitored in a UV chamber. The reaction mixture, upon completion of the reaction, was poured into wet ice mixture and triturated, then the separated solid was filtered by vacuum. The product was washed with hexane, followed by diethyl ether, and was dried under vacuum. The compounds were characterized by spectrophotometric techniques. Quantitative Real-Time PCR. The indicated cell lines were transfected with siRNA targeting septin-2 or non-targeting control siRNA (Santa Cruz Biotechnology: sc-37007 or sc-40936) using Lipofectamine 3000 (Invitrogen). Tri reagent and Direct-zol kit (Zymo Research) were used to lyse and isolate total RNA. Reverse transcription was performed using iScript cDNA synthesis kit (BioRad), both following the manufacturer's recommendations. Quantitative real-time PCR was conducted using QuantStudio 12 K Flex Real-Time PCR System (ABI) and the Taqman Gene Expression Assay (ABI) consisting of the FAM-labeled probes as follows: SEPT2 (Hs01565417_ml); WFDC2 (Hs00899484_ml); TBP (Hs00427620_ml) or B2M (Hs00187842_ml), which was used as reference for normalization. Cell Viability, Proliferation and Apoptosis Assay. Cell viability, proliferation, and cellular apoptosis were measured using the MTS (Promega), BrdU cell proliferation (Cell Signaling Technology), and Caspase-Glo 3/7 apoptosis detection (Promega) assays, following the respective manufacturer's recommendations with suitable modification. Enzyme-Linked Immunosorbent Assay (ELISA) and Immunoblotting. Cells were maintained overnight in the culture media described above. […] Following the treatment, cell lysates and supernatants were collected and subjected to HE4 assay (Human HE4 Quantikine ELISA Kit, R&D Systems). The amount of HE4 in supernatant was normalized to the protein concentration of matching cell lysate. The levels of HER2 were determined by Human Total ErbB2/Her2 DuoSet IC ELISA (R&D systems. Wester blot analysis was conducted using the protocol previously published (see Kim, K. K. et al. Tetrathiomolybdate inhibits mitochondrial complex IV and mediates degradation of hypoxia-inducible factor-1alpha in cancer cells. Sci. Rep. 5, 14296, 2015). Data Acquisition and Statistical Analysis. Gene expression profiling of septins, comparing microdissected normal ovarian stroma (N=8) against that of tumor stroma samples (N=31) from high grade serous ovarian cancer patients, was obtained from Mixed Ovarian Cancer (CAFs)-Wong-77-u133p2 data-set through ‘R2: Genomics Analysis and Visualization Platform (http://r2/am/n1). […] Survival curves between septin high and low population and their statistical significance were analyzed using GraphPad Prism software (Mantel-Cox test). […]

[3] = tested on: endometrial (ECC-1 and KLE) and ovarian (HCH-1, OVCAR-3, and SKOV-3) cancer cell lines; experiment: MTS cell viability, gynecologic cancer cell line panel; format: cell-based; conditions: for proliferation in multiple endometrial and ovarian cancer cells: at considerably lower doses than FCF; for cytotoxic / anti-proliferative activity (FIG. 2A): fixed concentration 100 μM, 24 hours
Experimental: Cell lines, Culture, and Reagents. Cells were maintained in either DMEM (SKOV-3, KLE, OVCAR-3, OVCAR8-C5 and IGROV-1) or RPMI-1640 (ECC-1 and HCH-1), supplemented with 10% fetal calf serum (or 20% for OVCAR-3), penicillin (100 units/mL), and streptomycin (100 μg/mL) at 37° C. with 5% CO2 in a humidified incubator. Antibodies were purchased from Abcam (septin-2; ab179436) and Cell Signaling Technology; ERK (9102), p-ERK (4370), -actin (3700), u-Tubulin (2144), EGFR (4267) and HER2 (4290). FCF was purchased from Abcam. All other chemicals were from Sigma Aldrich. Synthesis of Derivaties. […] The reaction was monitored using thin-layer chromatography plates with DCM-MeOH or pure ethyl acetate as eluent. Spots were monitored in a UV chamber. The reaction mixture, upon completion of the reaction, was poured into wet ice mixture and triturated, then the separated solid was filtered by vacuum. The product was washed with hexane, followed by diethyl ether, and was dried under vacuum. The compounds were characterized by spectrophotometric techniques. Quantitative Real-Time PCR. The indicated cell lines were transfected with siRNA targeting septin-2 or non-targeting control siRNA (Santa Cruz Biotechnology: sc-37007 or sc-40936) using Lipofectamine 3000 (Invitrogen). Tri reagent and Direct-zol kit (Zymo Research) were used to lyse and isolate total RNA. Reverse transcription was performed using iScript cDNA synthesis kit (BioRad), both following the manufacturer's recommendations. Quantitative real-time PCR was conducted using QuantStudio 12 K Flex Real-Time PCR System (ABI) and the Taqman Gene Expression Assay (ABI) consisting of the FAM-labeled probes as follows: SEPT2 (Hs01565417_ml); WFDC2 (Hs00899484_ml); TBP (Hs00427620_ml) or B2M (Hs00187842_ml), which was used as reference for normalization. Cell Viability, Proliferation and Apoptosis Assay. Cell viability, proliferation, and cellular apoptosis were measured using the MTS (Promega), BrdU cell proliferation (Cell Signaling Technology), and Caspase-Glo 3/7 apoptosis detection (Promega) assays, following the respective manufacturer's recommendations with suitable modification. Enzyme-Linked Immunosorbent Assay (ELISA) and Immunoblotting. Cells were maintained overnight in the culture media described above. […] Following the treatment, cell lysates and supernatants were collected and subjected to HE4 assay (Human HE4 Quantikine ELISA Kit, R&D Systems). The amount of HE4 in supernatant was normalized to the protein concentration of matching cell lysate. The levels of HER2 were determined by Human Total ErbB2/Her2 DuoSet IC ELISA (R&D systems. Wester blot analysis was conducted using the protocol previously published (see Kim, K. K. et al. Tetrathiomolybdate inhibits mitochondrial complex IV and mediates degradation of hypoxia-inducible factor-1alpha in cancer cells. Sci. Rep. 5, 14296, 2015). Data Acquisition and Statistical Analysis. Gene expression profiling of septins, comparing microdissected normal ovarian stroma (N=8) against that of tumor stroma samples (N=31) from high grade serous ovarian cancer patients, was obtained from Mixed Ovarian Cancer (CAFs)-Wong-77-u133p2 data-set through ‘R2: Genomics Analysis and Visualization Platform (http://r2/am/n1). Mean values with SD were plotted and compared using Student t-test (two tail, unpaired heteroscedastic t-test, significant difference when p<0.01). The prognostic assessment of septin-2 amongst different cancers or septins in endometrial cancer was conducted using TCGA data acquired through Human Protein Atlas (http://www.proteinatlas.org) (see Uhlen, M. et al. Towards a knowledge-based Human Protein Atlas. Nat. Biotechnol. 28, 1248-1250, 2010). Survival curves between septin high and low population and their statistical significance were analyzed using GraphPad Prism software (Mantel-Cox test). […] Structural Modification of FCF. […]

[4] = tested on: ECC-1 cells; experiment: MTS cell viability, ECC-1; format: cell-based; conditions: ECC-1, 48 hours, MTS (FIG. 2B)
Experimental: (§1) Cell lines, Culture, and Reagents. Cells were maintained in either DMEM (SKOV-3, KLE, OVCAR-3, OVCAR8-C5 and IGROV-1) or RPMI-1640 (ECC-1 and HCH-1), supplemented with 10% fetal calf serum (or 20% for OVCAR-3), penicillin (100 units/mL), and streptomycin (100 μg/mL) at 37° C. with 5% CO2 in a humidified incubator. Antibodies were purchased from Abcam (septin-2; ab179436) and Cell Signaling Technology; ERK (9102), p-ERK (4370), -actin (3700), u-Tubulin (2144), EGFR (4267) and HER2 (4290). FCF was purchased from Abcam. All other chemicals were from Sigma Aldrich. Synthesis of Derivaties. […] The reaction was monitored using thin-layer chromatography plates with DCM-MeOH or pure ethyl acetate as eluent. Spots were monitored in a UV chamber. The reaction mixture, upon completion of the reaction, was poured into wet ice mixture and triturated, then the separated solid was filtered by vacuum. The product was washed with hexane, followed by diethyl ether, and was dried under vacuum. The compounds were characterized by spectrophotometric techniques. Quantitative Real-Time PCR. The indicated cell lines were transfected with siRNA targeting septin-2 or non-targeting control siRNA (Santa Cruz Biotechnology: sc-37007 or sc-40936) using Lipofectamine 3000 (Invitrogen). […] Quantitative real-time PCR was conducted using QuantStudio 12 K Flex Real-Time PCR System (ABI) and the Taqman Gene Expression Assay (ABI) consisting of the FAM-labeled probes as follows: SEPT2 (Hs01565417_ml); WFDC2 (Hs00899484_ml); TBP (Hs00427620_ml) or B2M (Hs00187842_ml), which was used as reference for normalization. […] Cell viability, proliferation, and cellular apoptosis were measured using the MTS (Promega), BrdU cell proliferation (Cell Signaling Technology), and Caspase-Glo 3/7 apoptosis detection (Promega) assays, following the respective manufacturer's recommendations with suitable modification. […] Survival curves between septin high and low population and their statistical significance were analyzed using GraphPad Prism software (Mantel-Cox test). […]

[5] = tested on: HCH-1 cells; experiment: MTS cell viability, HCH-1; format: cell-based; conditions: HCH-1, 72 hours, compared with UR214-9
Experimental: (§2) Cell lines, Culture, and Reagents. Cells were maintained in either DMEM (SKOV-3, KLE, OVCAR-3, OVCAR8-C5 and IGROV-1) or RPMI-1640 (ECC-1 and HCH-1), supplemented with 10% fetal calf serum (or 20% for OVCAR-3), penicillin (100 units/mL), and streptomycin (100 μg/mL) at 37° C. with 5% CO2 in a humidified incubator. Antibodies were purchased from Abcam (septin-2; ab179436) and Cell Signaling Technology; ERK (9102), p-ERK (4370), -actin (3700), u-Tubulin (2144), EGFR (4267) and HER2 (4290). FCF was purchased from Abcam. All other chemicals were from Sigma Aldrich. Synthesis of Derivaties. […] The reaction was monitored using thin-layer chromatography plates with DCM-MeOH or pure ethyl acetate as eluent. Spots were monitored in a UV chamber. […] Quantitative Real-Time PCR. […] Quantitative real-time PCR was conducted using QuantStudio 12 K Flex Real-Time PCR System (ABI) and the Taqman Gene Expression Assay (ABI) consisting of the FAM-labeled probes as follows: SEPT2 (Hs01565417_ml); WFDC2 (Hs00899484_ml); TBP (Hs00427620_ml) or B2M (Hs00187842_ml), which was used as reference for normalization. […] Cell viability, proliferation, and cellular apoptosis were measured using the MTS (Promega), BrdU cell proliferation (Cell Signaling Technology), and Caspase-Glo 3/7 apoptosis detection (Promega) assays, following the respective manufacturer's recommendations with suitable modification. […]

[6] = tested on: HER2; experiment: Western blot of HER2 expression in ECC-1 and HCH-1 cells; format: cell-based; conditions: UR214-7 33 μM, UR214-9 33 μM, FCF 300 μM, 24 hours
Experimental: as §1

[7] = tested on: EGFR; experiment: Western blot of EGFR expression; format: cell-based; conditions: UR214-7 33 μM, UR214-9 33 μM; 24 hours
Experimental: as §2

[8] = tested on: ECC-1 cells; experiment: BrdU cell proliferation assay; format: cell-based; conditions: ECC-1, 48 hours, BrdU, lower dose ranges
Experimental: as §1

[9] = tested on: ECC-1 cells; experiment: Caspase-3/7 activity apoptosis assay; format: cell-based; conditions: ECC-1, 33 μM, 48 hours
Experimental: as §2

In the case of CN(C)C/C=C/C(=O)Nc1cc2c(Nc3ccc(F)c(Cl)c3)ncnc2cc1O[C@H]1CCOC1 [Afatinib], the “dysregulated genes, down” value ([1]; 1 μM UR214-9) is reported as 523, the “dysregulated genes, up” value ([1]; 1 μM UR214-9) is reported as 713 and the “dysregulated (differentially expressed) genes versus control” value ([1]; 1 μM UR214-9, adjusted p-value <0.05) is reported as 1236 genes.
O=C(Nc1ccnc(Cl)c1)Nc1cc(SC(F)(F)F)ccc1Cl [UR214-1] was tested, and the HE4 secretion [2] was “reduced HE4 secretion”, the “proliferation in multiple endometrial and ovarian cancer cells” value [3] was “blocked proliferation” and the “cytotoxic / anti-proliferative activity (FIG. 2A)” value ([3]; MTS) was “very potent cytotoxic activity”.
O=C(Nc1cccc(OCc2ccccc2)c1)Nc1ccnc(Cl)c1 [UR214-2] was tested, and the “cytotoxic / anti-proliferative activity (FIG. 2A)” value ([3]; MTS) was “not tolerated”.
For O=C(Nc1ccc(-n2cccc2)cc1)Nc1ccnc(Cl)c1 [UR214-3], the “cytotoxic / anti-proliferative activity (FIG. 2A)” value ([3]; MTS) was “not tolerated”.
In the case of O=C(Nc1ccc(-c2ncccn2)cc1)Nc1ccnc(Cl)c1 [UR214-4], the “cytotoxic / anti-proliferative activity (FIG. 2A)” value ([3]; MTS) is reported as “not tolerated”.
For O=C(Nc1cnc(Cl)nc1)Nc1cc(SC(F)(F)F)ccc1Cl [UR214-6], the “cytotoxic / anti-proliferative activity (FIG. 2A)” value ([3]; MTS) was “lack of activity”.
In the case of O=C(Nc1ccnc(Cl)c1)Nc1cccc(SC(F)(F)F)c1F [UR214-7], the concentration inhibiting viability [4] is reported as at least 11 µM, the “viability of tumor cells, dose-dependent (FIG. 2E)” value [5] is reported as “superior efficacy” and the HER2 expression [6] is reported as “inhibition of HER2 expression”. For the same compound, the HE4 secretion [2] was “reduced HE4 secretion”, the EGFR expression [7] was “did not have an effect” and the proliferation [8] was “reduce proliferation”. The “proliferation in multiple endometrial and ovarian cancer cells” value [3] was “blocked proliferation” and the “apoptosis (caspase-3/7 activity)” value [9] was “caused apoptosis”.
O=C(Nc1ccnc(Br)c1)Nc1cccc(C(F)(F)F)c1F [UR214-11] was tested, and the “viability of tumor cells, dose-dependent (FIG. 2E)” value ([3]; 72 hours, MTS) was “did not lose activity”.
